Reference: publication PMC5473888 (Scientific Reports, 2017)

Key:
[1] = target: T1, Y470F-hDAT (Homo sapiens, UniProt Q01959, Y470F); assay: Competitive inhibition [3H]DA uptake assay in transfected PC12 cells; assay type: cell-based; conditions: SRI-20041 12.8 µM
T1 construct: synthetic cDNA encoding hDAT subcloned into pcDNA3.1 +; expressed in transfected cells; host or cells: PC12 cells (ATCC CRL-1721), transient, Lipofectamine 2000, pcDNA3.1+
Excerpt: (§1) Results are presented as mean ± SEM, and n represents the number of independent experiments for each experiment group.

[2] = target: T2, WT hDAT (Homo sapiens, UniProt Q01959); assay: as above; assay type: cell-based; parameters: synthetic cDNA encoding hDAT subcloned into pcDNA3.1 +; expressed in transfected cells; host or cells: PC12 cells (ATCC CRL-1721), transient, Lipofectamine 2000, pcDNA3.1+; conditions: SRI-20041 12.8 µM
Excerpt: as §1

[3] = target: T2, WT hDAT; assay: Tat-induced inhibition of specific [3H]WIN35,428 binding in CHO cells transfected with WT hDAT; parameters: synthetic cDNA encoding hDAT subcloned into pcDNA3.1 +; expressed in transfected cells; host or cells: CHO cells (ATCC CRL-61), transient, Lipofectamine 2000, pcDNA3.1+
Method: CHO cells transfected with WT hDAT were incubated with [^3H]WIN 35,428 (final concentration, 5 nM) with or without recombinant Tat1–86 (rTat1–86) (40 nM, final concentration) on ice for 2 h. […] Data for rTat1–86 and SRI-30827 + rTat1–86 are expressed as the percentage of their respective controls in the absence of rTat1–86 (15675 ± 2982 DPM) and SRI-30827 (14041 ± 3212 DPM) n = 5. *p < 0.05 compared with control value.
PC12 cells were maintained in the incubator (37 °C, 5% CO2) with DMEM medium supplemented with horse serum (15%) and bovine calf serum (2.5%), glutamine (2 mM), and penicillin-streptomycin (100 U/ml). Chinese hamster ovary cells (CHO cells, ATCC, CRL-61) were maintained in F12 medium with 10% fetal bovine serum and antibiotics (100 U/mL penicillin and 100 µg/mL streptomycin). For hDATs transfection, cells were seeded into poly-D-lysine-coated 24 well plates at a density of 1 × 10^5 cells/well. After 24 h, cells were transfected with WT or mutant DAT plasmids using Lipofectamine 2000 (Life Tech, Carlsbad, CA) based on the manufacturer’s instruction. Cells were used for the experiments after 24 h of transfection.

[4] = test system: DA uptake in rat synaptosomes; parameters: method as in PMID 25788711; conditions: read-out: Potency for inhibition of DA uptake; cited from earlier work

T2 sequence (Q01959 whole entry): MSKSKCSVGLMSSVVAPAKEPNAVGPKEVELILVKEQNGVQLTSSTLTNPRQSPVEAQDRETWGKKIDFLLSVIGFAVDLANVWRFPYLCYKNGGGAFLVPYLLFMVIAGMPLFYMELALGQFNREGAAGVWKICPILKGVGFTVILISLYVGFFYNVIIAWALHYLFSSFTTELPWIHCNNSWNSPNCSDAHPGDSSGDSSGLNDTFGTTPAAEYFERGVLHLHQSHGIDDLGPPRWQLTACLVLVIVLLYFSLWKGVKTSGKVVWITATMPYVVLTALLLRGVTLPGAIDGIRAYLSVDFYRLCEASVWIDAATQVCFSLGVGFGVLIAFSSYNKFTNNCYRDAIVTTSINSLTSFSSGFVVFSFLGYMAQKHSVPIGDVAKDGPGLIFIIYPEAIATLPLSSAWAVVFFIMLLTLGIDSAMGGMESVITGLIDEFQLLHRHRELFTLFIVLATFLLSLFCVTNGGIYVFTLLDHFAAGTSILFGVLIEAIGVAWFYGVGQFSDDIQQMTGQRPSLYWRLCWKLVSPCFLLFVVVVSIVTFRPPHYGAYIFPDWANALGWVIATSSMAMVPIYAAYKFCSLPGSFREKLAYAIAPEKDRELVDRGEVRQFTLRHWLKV
T1 sequence (Q01959 whole entry Y470F): as the sequence (Q01959 whole entry) above, with Y470F counted along it

Compound	Increase of cocaine IC50 of [3H]DA uptake [1]	Increase of cocaine IC50 of [3H]DA uptake [2]	Effect on the specific [3H]WIN35,428 binding ([3]; SRI-30827 50 nM alone)	Specific [3H]WIN35,428 binding ([3]; SRI-30827 50 nM in the absence of rTat1–86, CHO cells, n = 5) [DPM]	IC50 [4] [nM]
c1ccc(-c2nc(NCCC(c3ccccc3)c3ccccc3)c3ccccc3n2)cc1 [SRI-20041]	~ 40%	~ 35%	–	–	–
Cc1cc2nccn2cc1-c1nc(NCC(c2ccccc2)c2ccccc2)c2ccccc2n1 [SRI-30827]	–	–	did not alter	14041 ± 3212	0.5
